# The source made the active and inactive calls.
# Experiments:
# [1] = target: T1, Carboxy-terminal domain RNA polymerase II polypeptide A small phosphatase 1 (Homo sapiens, UniProt Q9GZU7); assay: CTDSP1 inhibitors, concentration-response, biochemical, absorbance readout, ultra-high-throughput screen actives (AID 540297); assay type: functional
# T1 sequence (Q9GZU7 whole entry): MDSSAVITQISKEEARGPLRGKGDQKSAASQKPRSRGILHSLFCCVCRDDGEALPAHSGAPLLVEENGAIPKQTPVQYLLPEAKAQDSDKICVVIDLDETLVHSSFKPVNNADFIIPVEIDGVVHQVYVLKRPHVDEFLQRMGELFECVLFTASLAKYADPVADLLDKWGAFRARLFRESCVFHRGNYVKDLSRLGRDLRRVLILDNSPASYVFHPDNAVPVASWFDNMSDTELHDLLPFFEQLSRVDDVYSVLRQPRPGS
# Streptokinase A = target: T2, Streptokinase A (Streptococcus pyogenes serotype M1, UniProt P10520); assay: viability-normalized secreted streptokinase activity reduction – plasminogen activation absorbance, OD405, dose response (AID 1914); assay type: functional, Streptococcus pyogenes M1 GAS;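 also: secreted streptokinase activity via plasminogen activation per viability signal from cell pellet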
# T2 sequence (P10520 whole entry): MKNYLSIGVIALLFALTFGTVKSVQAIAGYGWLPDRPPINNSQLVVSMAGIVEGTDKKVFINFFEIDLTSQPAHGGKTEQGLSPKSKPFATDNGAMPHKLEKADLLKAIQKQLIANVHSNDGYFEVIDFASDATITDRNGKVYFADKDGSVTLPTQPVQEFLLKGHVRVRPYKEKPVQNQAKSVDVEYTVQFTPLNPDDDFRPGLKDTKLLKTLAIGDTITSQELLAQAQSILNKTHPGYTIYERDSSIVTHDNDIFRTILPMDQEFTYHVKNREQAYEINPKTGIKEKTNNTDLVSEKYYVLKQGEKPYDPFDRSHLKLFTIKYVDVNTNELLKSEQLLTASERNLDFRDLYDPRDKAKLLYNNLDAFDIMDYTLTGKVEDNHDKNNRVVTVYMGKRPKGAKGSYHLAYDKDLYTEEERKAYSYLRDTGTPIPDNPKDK
# [2] = target: T3, Polyadenylate-binding protein 1 (Homo sapiens, UniProt P11940); assay: MLLE binding blockers, Cy5 peptide tracer – biochemical, fluorescence polarization, Cy5-PAM2 peptide, secondary, miRNA deadenylation inhibitor project, dose response (AID 602260); assay type: functional; details: read-out: IC50_Mean
# T3 sequence (P11940 whole entry, the tested form may be a part): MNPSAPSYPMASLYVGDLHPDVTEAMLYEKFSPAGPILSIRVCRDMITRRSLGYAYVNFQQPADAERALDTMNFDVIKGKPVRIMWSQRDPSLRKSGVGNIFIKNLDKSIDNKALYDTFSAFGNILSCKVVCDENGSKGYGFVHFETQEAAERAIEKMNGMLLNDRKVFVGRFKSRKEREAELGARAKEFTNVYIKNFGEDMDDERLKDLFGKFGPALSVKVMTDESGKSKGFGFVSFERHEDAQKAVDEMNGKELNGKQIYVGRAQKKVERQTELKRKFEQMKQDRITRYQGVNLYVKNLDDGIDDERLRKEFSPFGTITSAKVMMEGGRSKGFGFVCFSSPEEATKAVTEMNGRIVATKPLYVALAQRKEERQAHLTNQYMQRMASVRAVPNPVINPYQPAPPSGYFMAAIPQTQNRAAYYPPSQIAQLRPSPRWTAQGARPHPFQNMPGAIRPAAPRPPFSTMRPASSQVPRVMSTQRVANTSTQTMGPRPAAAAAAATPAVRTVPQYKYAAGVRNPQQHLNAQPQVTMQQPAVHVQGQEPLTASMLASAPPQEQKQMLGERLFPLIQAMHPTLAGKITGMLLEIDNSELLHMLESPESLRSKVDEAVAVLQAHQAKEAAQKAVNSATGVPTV
# [3] = target: T3, Polyadenylate-binding protein 1; assay: MLLE domain peptide-binding blockers, IC50 – biochemical, fluorescence polarization, FITC-PAM2 peptide, dose response (AID 602259); assay type: functional; details: read-out: IC50_Mean
# [4] = Luminescence Cell-Based Dose Confirmation HTS to Identify Activators of 5'UTR Stem-Loop Driven Alpha-Synuclein mRNA Translation in H4 Neuroglioblastoma Cells. [Related pubchem assays: 1829 (Project Summary), 1814 (Primary HTS)]; assay type: functional
# [5] = Luminescence Cell-Based Dose Response HTS to Identify Activators of Luciferase Translation or Activity in H4 […] Cells. [Related pubchem assays: 1829 (Project Summary), 1814 (Primary HTS)]; assay type: functional
# H4 = assay: Luminescence Cell-Based Dose Response HTS to Identify Activators of 5'UTR Stem-Loop Driven Prion Protein mRNA Translation in H4 Neuroglioblastoma Cells. [Related pubchem assays: 1829 (Project Summary), 1814 (Primary HTS)]; assay type: functional; details: Homo sapiens
# [6] = viability of PTEN-deleted HCT116 cells – cell-based, HCT116 PTEN knockout, dose response (AID 1047); assay type: functional;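 also: HCT116 colon tumor cells with PTEN knocked out; cells exposed to compound for 60 hours before readout; potency for loss of cell viability measured by luminescence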
# [7] = viability of HCT116 lacking mutant beta-catenin – cell-based, human colon tumor, dose response (AID 1045); assay type: functional;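 also: HCT116 colon tumor cells with beta catenin knocked out; cells exposed to compound for 60 hours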
# [8] = NIH-3T3 fibroblast cytotoxicity, dose response, cytotoxicity control, cell-based, fluorescence, Alamar Blue, secondary assay (AID 2327); assay type: functional;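 also: NIH-3T3 mouse fibroblasts cultured with fluconazole at 8 µg/mL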
# [9] = fluconazole-exposed Candida albicans growth modulators – fluorescence, retest, confirmation (AID 2467); assay type: functional, cell-based
# [10] = blockers of HIV-1 envelope-mediated cell-cell fusion – cherry-pick, dose response (AID 652057); assay type: functional, cell-based
# [11] = blockers of HIV-1 ZM109 envelope-driven cell-cell fusion – HeLa effector, CEM target cells, luciferase, cherry-pick, dose response (AID 652058); assay type: functional, cell-based;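 also: luciferase signal from HIV-1 Env mediated cell-cell fusion of effector and target cells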
# [12] = off-target signal loss in HeLa-CEM21 co-culture – HeLa F-luc CTL cells, cherry-picked, counter-screen for HIV-1 Env fusion inhibitor project, dose response (AID 652040); assay type: functional, cell-based;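 also: potency for signal decrease marking cytotoxic or nonspecific inhibition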
# [13] = HIV-1 AD8 envelope cell-cell fusion blockers – cherry-pick, dose response (AID 652062); assay type: functional, cell-based;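 also: luciferase signal from cell-cell fusion driven by HIV-1 clade B AD8 Env; potency is for inhibitors of fusion seen as a drop in luminescence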
# [14] = target: T4, Corticotropin-releasing factor receptor 2/Corticotropin-releasing factor-binding protein (Homo sapiens, UniProt P24387+Q13324); assay: Dose Response confirmation of uHTS hits for small molecule antagonists of the CRF-binding protein and CRF-R2 receptor complex.; assay type: functional; details: read-out: IC50_Mean
# T4 sequence (Q13324 whole entry): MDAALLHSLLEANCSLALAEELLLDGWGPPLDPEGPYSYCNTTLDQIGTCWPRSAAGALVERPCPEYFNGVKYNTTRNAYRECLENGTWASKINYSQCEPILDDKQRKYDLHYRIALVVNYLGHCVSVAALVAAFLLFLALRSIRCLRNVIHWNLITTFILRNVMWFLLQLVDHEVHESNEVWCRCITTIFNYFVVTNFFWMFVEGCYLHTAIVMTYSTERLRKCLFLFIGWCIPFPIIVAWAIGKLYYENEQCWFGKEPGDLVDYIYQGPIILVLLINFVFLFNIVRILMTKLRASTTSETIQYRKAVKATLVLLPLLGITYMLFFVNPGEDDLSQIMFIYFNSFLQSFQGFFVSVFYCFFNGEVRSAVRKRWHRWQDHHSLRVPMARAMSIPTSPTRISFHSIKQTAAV
# T4 sequence (P24387 whole entry): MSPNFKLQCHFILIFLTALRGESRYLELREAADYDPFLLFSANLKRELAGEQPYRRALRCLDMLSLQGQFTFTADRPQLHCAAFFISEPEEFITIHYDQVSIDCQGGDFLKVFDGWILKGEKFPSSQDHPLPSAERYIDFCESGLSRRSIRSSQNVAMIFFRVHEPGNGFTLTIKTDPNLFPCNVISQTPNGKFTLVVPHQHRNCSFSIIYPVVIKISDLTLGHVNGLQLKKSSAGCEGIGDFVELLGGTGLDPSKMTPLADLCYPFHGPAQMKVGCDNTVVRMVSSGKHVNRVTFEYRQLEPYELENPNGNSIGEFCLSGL
# [15] = target: T4, Corticotropin-releasing factor receptor 2/Corticotropin-releasing factor-binding protein; assay: activators of CRF receptor 2 with binding protein – uHTS hits, confirmation (AID 602473); assay type: functional; details: read-out: EC50_Mean
# H9c2 = assay: cells; assay type: functional, cell-based; details: Rattus norvegicus, H9c2, Myocardium;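 also: confirmatory concentration-response retest of ultra-high-throughput screening hits for modulation of myocardial damage; cell death induced by hydrogen peroxide oxidative stress; compound pretreatment for 60 min then peroxide exposure for 2 h; potency is for protecting the cells against peroxide damage rather than for killing them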
# [16] = reduction of Shn3 3'UTR-driven luciferase in osteoblasts – cell-based, Clone20 osteoblasts, firefly luciferase, cherry-picked, dose response (AID 624132); assay type: functional;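 also: firefly luciferase luminescence from reporter carrying the Shn3 3'UTR in osteoblasts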
# [17] = P. falciparum Dd2 growth inhibitors, dose response, SYBR Green, cherry-picked samples (AID 1159567); assay type: functional, cell-based
compound,measurement,setting,value
Cc1ccn2c(=O)nc(SCC(=O)NCc3ccc4c(c3)OCO4)nc2c1,IC50,[1],10.5 µM (active)
CC(=O)c1ccc(NC(=S)Nc2ccc(Br)c(Cl)c2)cc1,EC50,Streptokinase A,> 150 µM (not active)
same,IC50,[2],> 66 µM (inactive)
same,IC50,[3],> 66 µM (inactive)
COc1ccc(NC(=O)Nc2cccc3cccnc23)cc1,EC50,[4],21.7 µM (active)
same,EC50,[5],5.48 µM (active)
same,EC50,H4,21.2 µM (active)
O=C1C(CSCc2ccccc2)NC(=S)N1c1ccccc1 (stereo unspecified),EC50,[4],> 120 µM (not active)
same,EC50,[5],> 120 µM (not active)
same,EC50,H4,> 120 µM (not active)
CCOc1ccc(C2CC(c3ccc(CC)cc3)Nc3nc(N)nn32)cc1 (stereo unspecified),EC50,[4],> 120 µM (not active)
same,EC50,[5],10.5 µM (active)
same,EC50,H4,19.7 µM (active)
CC(=O)Nc1ccccc1N(CC(O)Cn1c2ccccc2c2ccccc21)S(=O)(=O)c1ccc(C)cc1 (stereo unspecified),EC50,[6],13.5 µM (active)
same,EC50,[7],17.1 µM (active)
N=c1c2c(ncn1CCN1CCOCC1)Oc1ccc3ccccc3c1C2c1ccccc1 (stereo unspecified),EC50,[6],16.5 µM (active)
same,EC50,[7],15.3 µM (active)
Sc1nnc(-c2ccc(Cl)cc2Cl)n1-c1ccccc1,EC50,[4],15.5 µM (active)
same,EC50,[5],56.4 µM (active)
same,EC50,H4,14.9 µM (active)
CCOC(=O)c1cc(O)n2c(n1)nc1ccccc12,EC50,[4],15.8 µM (active)
same,EC50,[5],11.4 µM (active)
same,EC50,H4,20.4 µM (active)
COc1ccc(C2Nc3ccccc3C(=O)N2O)cc1OC (stereo unspecified),EC50,[8],> 150 µM (inactive)
same,EC50,[9],> 38 µM (not active)
CCc1ccc(-c2cn3nc(C)c(C)nc3n2)cc1,AC50,[10],3.94 µM (active)
same,AC50,[11],29.3 µM (active)
same,AC50,[12],11 µM (active)
same,AC50,[13],6.35 µM (active)
CN1C(c2ccc(F)cc2)=CS/C1=C(/C#N)c1nnc(N2CCOCC2)n1-c1ccccc1,EC50,[4],> 120 µM (not active)
same,EC50,[5],> 120 µM (not active)
same,EC50,H4,> 120 µM (not active)
same,IC50,[14],> 47.1 µM (inactive)
same,EC50,[15],> 53 µM (inactive)
Cc1ccc(Cn2ncn(-c3ccccc3)c2=O)cc1,EC50,[4],14.4 µM (active)
same,EC50,[5],24.1 µM (active)
same,EC50,H4,7.14 µM (active)
Cc1cccc(C(=O)NC2CCN(C(=O)NCc3ccccc3)CC2)c1,IC50,[1],12.1 µM (active)
C=CCn1c(=N)n(CC(=O)c2cccc([N+](=O)[O-])c2)c2ccccc21,EC50,[8],134 µM (active)
same,EC50,[9],> 38 µM (not active)
CCCc1cc(=O)oc2cc(OCC(=O)NC(Cc3c[nH]c4ccc(O)cc34)C(=O)O)c(Cl)cc12 (stereo unspecified),IC50,[1],32.7 µM (active)
O=C(CN1C(=O)S/C(=C\c2ccc(O)c([N+](=O)[O-])c2)C1=O)Nc1ccc(N2CCOCC2)cc1,IC50,[1],2.65 µM (active)
Cc1ccc(Nc2nnc(C3C(=O)N(C)C4(C)CC3c3cc(Br)ccc3O4)s2)cc1 (stereo unspecified),EC50,[8],19.8 µM (active)
same,EC50,[9],4.45 µM (active)
CC1=CC(C)(C)n2c(O)c(C3=NC(=S)NC3=O)c3cc(OC(=O)c4cccc5ccccc45)cc1c32,EC50,[6],19.6 µM (active)
same,EC50,[7],24 µM (active)
Cc1ccc2nc(O)c(CN(Cc3ccco3)S(=O)(=O)c3c(C)ccc4nsnc34)cc2c1,EC50,[6],13.2 µM (active)
same,EC50,[7],14.8 µM (active)
same,IC50,H9c2,8.78 µM (active)
CC(C)(COC(=O)C(c1ccccc1)c1ccccc1)CN1CCOCC1,AC50,[10],4.96 µM (active)
same,AC50,[11],2.42 µM (active)
same,AC50,[12],4.01 µM (active)
same,AC50,[13],1.83 µM (active)
CC(=O)OCC1=C(C(=O)OC(C)(C)C)N2C(=O)[C@@H](NC(=O)Cc3ccccc3)[C@H]2SC1,IC50,[1],8.61 µM (active)
CCOC(=O)C1(C)Oc2ccccc2C(C(=O)OC)=C1C(=O)OC (stereo unspecified),IC50,[1],23.6 µM (active)
O=C(COC(=O)c1ccc(Br)o1)NCc1ccco1,IC50,[1],9.79 µM (active)
O=C(CCCOc1ccc(Cl)cc1Cl)Nc1cc(S(=O)(=O)N2CCOCC2)ccc1N1CCOCC1,AC50,[10],3.23 µM (active)
same,AC50,[11],11.8 µM (active)
same,AC50,[12],6.33 µM (active)
same,AC50,[13],15.8 µM (active)
Cc1ccc(S(=O)(=O)N2CCCCC2)cc1C(=O)NCCC1=CCCCC1,AC50,[10],3.71 µM (active)
same,AC50,[11],5.36 µM (active)
same,AC50,[12],7.03 µM (active)
same,AC50,[13],17.1 µM (active)
NS(=O)(=O)c1ccc(CNC(=S)NC(=O)c2ccco2)cc1,AC50,[16],22.9 µM (active)
C[C@H](CO)N1C[C@H](C)[C@H](CN(C)C(=O)Cc2ccccc2)OCc2ccccc2-c2c(n(C)c3ccccc23)C1=O,AC50,[10],< 0.26 µM (active)
same,AC50,[11],< 0.26 µM (active)
same,AC50,[13],< 0.26 µM (active)
CC(C)C[C@@H](CN(C)N=O)N(C[C@H](Cc1ccccc1)N(CCc1ccccc1)N=O)N=O,AC50,[10],4.34 µM (active)
same,AC50,[11],5.62 µM (active)
same,AC50,[12],7.74 µM (active)
same,AC50,[13],7.36 µM (active)
CC(C)[C@H](CN(N=O)[C@@H](Cc1ccccc1)CN(C)N=O)N(CCc1ccccc1)N=O,AC50,[10],5.66 µM (active)
same,AC50,[11],12.3 µM (active)
same,AC50,[12],10.8 µM (active)
same,AC50,[13],15.5 µM (active)
CCCOc1ccc2ccccc2c1/C=N/n1cnnc1,AC50,[10],24.8 µM (active)
same,AC50,[11],4.27 µM (active)
same,AC50,[12],25.6 µM (active)
same,AC50,[13],18.5 µM (active)
O=C1C2C3C=CC(C4CC34)C2C(=O)N1/N=C/c1c[nH]c2ccccc12 (stereo unspecified),EC50,[4],11 µM (active)
same,EC50,[5],> 120 µM (not active)
same,EC50,H4,14.9 µM (active)
CCCN(C)C[C@@H]1Oc2cc(C#Cc3ccncc3)ccc2S(=O)(=O)N([C@H](C)CO)C[C@@H]1C,AC50,[17],6.76 µM (active)
O=C(C1CCC1)N1CC(=O)N2[C@H](CO)[C@@H](c3ccc(C#CCc4ccccc4)cc3)[C@H]2C1,AC50,[17],9.44 µM (active)
C/C=C/c1ccc([C@H]2[C@@H](CO)N(C(=O)C3CCCC3)[C@H]2CNCCC)cc1,AC50,[17],4.85 µM (active)

# Source: ChEMBL document CHEMBL1201862, “PubChem BioAssay data set” (2004)
